Columns and labels:
[1] = In Vitro Phospholipidosis Assay (Assay 3), Nile red staining; format: cell-based, human; settings: human, first effect concentration, U937 cells, read-out: Phospholipidosis FEC IC50 μM (assay 3)
Method: In Vitro Phospholipidosis Assay (Assay 3)
The phospholipidogenic potential of test compounds was assayed using the human hematopoetic U937 cell line. The test principle was to analyze the phospholipid content by staining the cells with the fluorescent dye Nile red.
U937 cells were seeded into cell culture plates at 0.5×10^6 cells/mL in RPMI medium containing 10% FBS, 1% DMSO, and 0.005% gentamicin. The cells were cultivated with or without different concentrations of test compound for 48 h under standard culture conditions.
For harvesting, the cells were centrifuged at 130×g for 4 min and washed once with PBS. Then, 2×0.5 mL cell suspensions were prepared for non-fixed cell measurement (0.5 mL for propidium iodide (PI) viability measurement and 0.5 mL for Nile red measurement).
The remaining cells were fixed with 3.7% formaldehyde for 30 min. After a further centrifugation step, cells were resuspended with 1.3 mL Nile red working solution (1 μg/mL) and incubated for 5 min at rt. The cell suspension was washed twice with 3 mL PBS and centrifuged with 130×g for 4 min. The supernatant was discarded and the cells were resuspended with 0.5 mL PBS and kept for flow cytometry measurement.
For Nile red staining of the 0.5 mL non-fixed cell samples, 50 μL of a ready to use Nile red solution (10 μg/mL) were added per sample. Samples were kept on ice for 5 min. Thereafter, they were washed once with 4 mL PBS (4° C., 250×g for 8 min) and finally resuspended in 400 μL PBS and kept for flow cytometry measurement.
For the viability measurement, 12.5 μL of the ready to use PI solution (10 μg/mL) were added to the 0.5 mL non-fixed cell suspension. After 15 min of incubation on ice, the samples were measured by flow cytometry using a Coulter Epics XL/MCL flow cytometer.
The viability of the cells of each sample was determined by flow cytometry measurement of the PI content at channel 2 (568-590 nm). Cut-off gates for the fluorescence-dependent differentiation between live and dead cells were defined based on the analysis of cell culture medium control samples.
Only samples with a cell viability of >=90% relative to control samples were analyzed for phospholipidosis. Each Nile red sample (non-fixed and fixed samples) was measured by flow cytometry at channel 1 (504-541 nm) and channel 4 (660-680 nm).
For each channel, relative Nile red fluorescence intensity of a test sample was calculated compared to control samples and expressed as a percentage of control fluorescence intensity. The assessment of the phospholipidogenic potential and the first effective concentration (FEC) of a test compound was done manually based on the fluorescence intensities at both wavelengths for the fixed cells, as well as for the non-fixed cells.

[2] = molecular target: truncated human beta-secretase, BACE1 (amino acids 1-454) (Homo sapiens (Human), UniProt P56817); test: BACE1 Assay (Assay 1), fluorescence quench assay; format: biochemical; settings: pH 4.4
Chain of truncated human beta-secretase, BACE1 (amino acids 1-454) (P56817 22-454): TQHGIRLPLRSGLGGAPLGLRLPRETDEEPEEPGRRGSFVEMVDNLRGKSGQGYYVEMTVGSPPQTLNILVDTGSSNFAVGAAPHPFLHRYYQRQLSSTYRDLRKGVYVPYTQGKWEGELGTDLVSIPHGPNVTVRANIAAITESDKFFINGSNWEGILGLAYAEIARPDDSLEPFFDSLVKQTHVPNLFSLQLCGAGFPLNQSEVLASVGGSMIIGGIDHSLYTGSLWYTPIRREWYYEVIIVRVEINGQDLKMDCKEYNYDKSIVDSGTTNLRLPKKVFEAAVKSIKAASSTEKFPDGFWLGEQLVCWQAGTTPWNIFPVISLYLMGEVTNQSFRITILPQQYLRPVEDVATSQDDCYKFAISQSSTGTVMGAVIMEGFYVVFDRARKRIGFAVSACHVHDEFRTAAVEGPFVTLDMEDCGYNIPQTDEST
Method: The substrate was dissolved at 1 mg/ml in DMSO.
The assay was performed in the presence of OptiMEM™ (supernatant collected over 24 h and cleared from cellular debris by centrifugation) containing the ectodomain of BACE1, 25 μl water containing the desired 2-fold concentration of test compound and 2% DMSO, 1 μM substrate peptide, 20 mM NaOAc, pH 4.4, and 0.04% Triton-X100 in a total assay volume of 50 μl in a 384 well plate. In general, 25 μl of compound dilution were added to the plate followed by the addition of 10 μl of BACE1 containing OptiMEM™ diluted 1:10 in water with 0.2% Triton X-100. The reaction was started with the addition of 15 μl substrate in NaOAc buffer. The reaction was incubated at rt (dark) in an Envision® multilabel reader (Perkin Elmer) and the cleavage of the substrate was recorded as kinetic for […] at ex: 485 nm, em: 538 nm. Blank wells containing no enzyme were included on each plate.
The intensity of fluorescence was regressed against time in order to derive velocities of reaction in all 384 wells. These velocities were used for calculating percent control using an uninhibited control containing 1% DMSO as 100% and a blank control performed in the absence of enzyme as 0%. IC50 values were calculated by fitting percent control vs. test compound concentration using Assay Explorer®.

[3] = test system: Human Hepatocytes; test: In Vitro Hepatocyte Stability Assay (Assay 4); format: in vitro ADME; settings: predicted blood clearance as percent of hepatic blood flow
Method: In Vitro Hepatocyte Stability Assay (Assay 4)
The metabolic degradation of test compounds was assayed in a hepatocyte suspension. Cryopreserved hepatocytes were incubated in an appropriate buffer system (e.g., Dulbecco's modified eagle medium plus 3.5 μg glucagon/500 mL, 2.5 mg insulin/500 mL and 3.75 mg/500 mL hydrocortison) containing 5% species serum. Following a 30 min preincubation in an incubator (37° C., 10% CO2), 5 μl of test compound solution (80 μM; from 2 mM in DMSO stock solution diluted 1:25 with medium) were added into 395 μl hepatocyte suspension (cell density in the range 0.25−5×10^6 cells/mL, typically 1×10^6 cells/mL; final concentration of test compound final DMSO concentration […]).
The cells were incubated for six h (incubator, orbital shaker) and samples (25 μl) were taken at 0, 0.5, 1, 2, 4 and 6 h. Samples were transferred into acetonitrile and pelleted by centrifugation (5 min). The supernatant was transferred to a new 96 DeepWell™ plate, evaporated under nitrogen and resuspended. Decline of compound was analyzed by HPLC-MS/MS. CLint (in vitro hepatic intrinsic clearance) was calculated as follows: CLint=Dose/AUC=(C0/CD)/(AUD+Clast/k)×1000/60
C0: initial concentration in the incubation [μM];
CD: cell density of vital cells [cells/mL];
AUD: area under the data [μM×h];
Clast: concentration of last data point [μM];
k: slope of the regression line for compound decline [h^−1].
The calculated in vitro hepatic intrinsic clearance was scaled up to the intrinsic in vivo hepatic clearance (Clint in vivo) and used to predict hepatic in vivo blood clearance (CL) by the use of a liver model (well-stirred model), as follows: CLint,in vivo[mL/min/kg]=(CLint[μL/min/10^6 cells]×hepatocellularity[10^6 cells/g liver]×liver factor [g/kg body weight])/1000 CL[mL/min/kg]=CLint,to vivo×hepatic blood flow[ml/min/kg]/(CLint,in vivo[ml/min/kg]+hepatic blood flow[mL/min/kg])
The in vivo blood clearance was transformed into percent of the hepatic blood flow (% Qh): % Qh=CL[mL/min/kg]/hepatic blood flow[mL/min/kg])×100
Hepatocellularity, human: 1.2×10^7 cells/g liver;
Liver factor, human: 25.7 g/kg body weight;
Hepatic blood flow, human: 21 mL/(min×kg).

[4] = molecular target: hERG channel (Homo sapiens (Human), UniProt Q12809); test: hERG-Channel Assay (Assay 2), whole-cell patch clamp in HEK293 cells stably transfected with hERG cDNA; format: cell-based; settings: for inhibition at 10 µM: human, HEK293 cells stably transfected with hERG cDNA, pH 7.4, 35° C.
Chain of hERG channel (Q12809 whole entry): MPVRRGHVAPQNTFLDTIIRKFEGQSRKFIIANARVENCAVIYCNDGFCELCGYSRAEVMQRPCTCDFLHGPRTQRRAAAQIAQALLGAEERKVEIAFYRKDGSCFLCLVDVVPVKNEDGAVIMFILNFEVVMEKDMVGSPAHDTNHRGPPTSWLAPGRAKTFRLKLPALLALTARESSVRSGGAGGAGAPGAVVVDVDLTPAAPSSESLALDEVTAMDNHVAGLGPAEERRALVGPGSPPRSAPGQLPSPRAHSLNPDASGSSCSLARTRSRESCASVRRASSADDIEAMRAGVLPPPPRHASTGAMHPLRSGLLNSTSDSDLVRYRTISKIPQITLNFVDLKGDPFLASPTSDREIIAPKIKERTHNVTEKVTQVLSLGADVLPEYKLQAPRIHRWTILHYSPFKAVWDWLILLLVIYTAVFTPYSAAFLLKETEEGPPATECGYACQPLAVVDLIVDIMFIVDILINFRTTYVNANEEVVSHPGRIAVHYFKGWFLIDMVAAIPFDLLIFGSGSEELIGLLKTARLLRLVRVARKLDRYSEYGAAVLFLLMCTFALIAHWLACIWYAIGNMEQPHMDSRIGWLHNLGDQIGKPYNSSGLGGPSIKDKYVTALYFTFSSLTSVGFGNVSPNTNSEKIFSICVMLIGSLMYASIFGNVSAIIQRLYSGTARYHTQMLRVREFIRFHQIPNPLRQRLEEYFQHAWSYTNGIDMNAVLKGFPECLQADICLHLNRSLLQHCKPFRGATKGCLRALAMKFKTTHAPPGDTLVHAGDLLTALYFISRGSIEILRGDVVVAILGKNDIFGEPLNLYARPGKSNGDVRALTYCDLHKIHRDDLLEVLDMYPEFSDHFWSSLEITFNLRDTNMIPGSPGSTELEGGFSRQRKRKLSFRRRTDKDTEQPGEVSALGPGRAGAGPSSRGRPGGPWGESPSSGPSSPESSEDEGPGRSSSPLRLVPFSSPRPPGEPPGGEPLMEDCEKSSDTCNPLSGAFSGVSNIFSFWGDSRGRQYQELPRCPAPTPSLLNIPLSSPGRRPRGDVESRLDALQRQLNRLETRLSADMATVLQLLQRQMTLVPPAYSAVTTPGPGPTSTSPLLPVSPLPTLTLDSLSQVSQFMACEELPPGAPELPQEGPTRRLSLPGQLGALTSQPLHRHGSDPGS
Text: hERG-Channel Assay (Assay 2)
Cells: HEK (human embryonic kidney) 293 cells were stably transfected with hERG cDNA.
Cells were superfused with a bath solution containing (mM): NaCl (137), KCl (4.0), MgCl2 (1.0), CaCl2 (1.8), Glucose (10), HEPES (10), pH 7.4 with NaOH. Patch pipettes were made from borosilicate glass tubing using a horizontal puller and filled with pipette solution containing (mM): K-aspartate (130), MgCl2 (5.0), EGTA (5.0), K2ATP (4.0), HEPES (10.0), pH 7.2 with KOH. Resistance of the microelectrodes was in the range between 2 and 5 MΩ.
Stimulation and Recording:
Membrane currents were recorded using an EPC-10 patch clamp amplifier and PatchMaster software. hERG-mediated membrane currents were recorded at 35° C., using the whole-cell configuration of the patch-clamp technique. Transfected HEK293 cells were clamped at a holding potential of −60 mV and hERG-mediated inactivating tail currents were elicited using a pulse pattern with fixed amplitudes (activation/inactivation: 40 mV for 2000 ms; recovery: −120 mV for 2 ms; ramp to 40 mV in 2 ms; inactivating tail current: 40 mV for 50 ms) repeated at 15 s intervals. During each inter-pulse interval, 4 pulses scaled down by a factor of 0.2 were recorded for a P/n leak subtraction procedure. Rs compensation was employed up to a level that safely allowed recording devoid of ringing.
Compound Preparation and Application:
The different concentrations of the test compounds were applied sequentially on each of the different cells investigated. A steady state level of baseline current was measured for at least 6 sweeps prior to the application of the first test compound concentration.
The test compound was dissolved in DMSO to yield a master stock solution which was diluted further in DMSO to stock solutions needed for the lower concentrations. Final dilutions in extracellular buffer were prepared freshly from these stocks by a 1:1000 dilution step each before starting the experiments.
Peak current amplitudes were measured 3 ms after the ramp to +40 mV. For baseline and each concentration, the peak currents of the three last sweeps before application of the next concentration were averaged. Residual currents (I/I0) were calculated for each cell as the fraction of actual average peak current and average baseline peak current.

SMILES | IC50 [2] [nM] | In vitro Human Hepatocytes % Qh @ 1 μM (assay 4) [3] [% Qh] | IC50 at 48 h [1] [µM] | inhibition at 10 µM [4] [%] | % Inhibition hERG @ 10 μM (assay 2) ([4]; 35° C.) [%]
C[C@@H]1C[C@@]2(Cc3ccc(C#N)cc3[C@]23N=C(N)N(CC2CC2)C3=O)C[C@H](C)[C@H]1O [Example 10] | 10.6 | 0 | > 100 | 33 | –
C[C@@H]1CC2(Cc3ccc(Cl)cc3[C@]23N=C(N)N(Cc2ncccn2)C3=O)C[C@H](C)[C@H]1O (stereo partly shown) [Example 11] | 14.6 | 0 | 200 | 19 | –
C[C@H]1C[C@@]2(CC[C@@H]1O)Cc1ccc(C#N)cc1[C@]21N=C(N)N(CC2CC(F)(F)C2)C1=O [Example 13] | 8.7 | 4.2 | 200 | 12 | –
COC1CCC2(CC1)Cc1ccc(C#N)cc1[C@]21N=C(N)N(C)C1=O (stereo partly shown) [drawing 10, reference compound] | – | 14 | 400 | 90 | –
COCC(C)N1C(=O)C2(N=C1N)c1cc(C#N)ccc1CC21CCC(OC)CC1 (stereo not shown) [reference compound] | 256 | – | – | – | –
COC1CCC2(CC1)Cc1ccc(Cl)cc1[C@]21N=C(N)N(C)C1=O (stereo partly shown) [reference compound] | – | – | 100 | 58 | –

More lines, in order of falling IC50 [2], values ahead:

IC50 [2] [nM] | In vitro Human Hepatocytes % Qh @ 1 μM (assay 4) [3] [% Qh] | SMILES | IC50 at 48 h [1] [µM] | inhibition at 10 µM [4] [%] | % Inhibition hERG @ 10 μM (assay 2) ([4]; 35° C.) [%]
8.3 | – | CO[C@H]1CC[C@]2(CC1)Cc1ccc(OCC3CC3)cc1C21N=C(N)N(CCC(F)(F)F)C1=O (stereo partly shown) [reference compound] | – | 87 | –
6.8 | 0 | C[C@H]1C[C@@]2(CC[C@@H]1O)Cc1ccc(-c3cccnc3)cc1[C@]21N=C(N)N(Cc2ncccn2)C1=O [Example 12] | 100 | 15 | –
6.3 | 11 | C[C@@H]1C[C@@]2(Cc3ccc(NC(=O)C(C)(C)F)cc3[C@]23N=C(N)N(CC(C)(C)F)C3=O)C[C@H](C)[C@H]1O [Example 6] | 400 | 1.8 | –
5.1 | 8.5 | COC1CCC2(CC1)Cc1ccc(C#CC3CC3)cc1C21N=C(N)N(Cc2ncco2)C1=O (stereo not shown) [drawing 13, reference compound] | – | 60 | –
5.1 | 8.5 | COC1CCC2(CC1)Cc1ccc(C#CC3CC3)cc1C21N=C(N)N(Cc2ncco2)C1=O (stereo not shown) [drawing 17, reference compound] | – | – | 60
3.5 | 88 | CO[C@H]1CC[C@]2(CC1)Cc1ccc(CCC(C)C)cc1C21N=C(N)N(CC(F)(F)F)C1=O (stereo partly shown) [reference compound] | – | 89 | –
3 | 3.1 | C[C@@H]1C[C@@]2(Cc3ccc(C#N)cc3[C@]23N=C(N)N(CC(C)(C)Cl)C3=O)C[C@H](C)[C@H]1O [Example 3] | 200 | 20 | –
2.6 | 6.1 | C[C@@H]1C[C@@]2(Cc3ccc(-c4cncnc4)cc3[C@]23N=C(N)N(CC(C)(C)F)C3=O)C[C@H](C)[C@H]1O [Example 5] | 400 | 12 | –
1.9 | 19.1 | CC[C@@H]1C[C@@]2(Cc3ccc(C#N)cc3[C@]23N=C(N)N(C[C@H]2COCCO2)C3=O)C[C@H](C)[C@H]1O [Example 8] | 800 | 6 | –

Source: patent US9018391B2, “Inhibitors of beta-secretase” (Boehringer Ingelheim International GmbH, priority 2012, dated 2015)
